In US8283373B2, “Inhibitors of cytosolic phospholipase A2” (Pfizer Inc., priority 2005, dated 2012):

Assays:
[1] = target: T1, cPLA2α (Homo sapiens, UniProt P47712); test: GLU Micelle Assay; format: biochemical
T1 sequence (P47712 1-749): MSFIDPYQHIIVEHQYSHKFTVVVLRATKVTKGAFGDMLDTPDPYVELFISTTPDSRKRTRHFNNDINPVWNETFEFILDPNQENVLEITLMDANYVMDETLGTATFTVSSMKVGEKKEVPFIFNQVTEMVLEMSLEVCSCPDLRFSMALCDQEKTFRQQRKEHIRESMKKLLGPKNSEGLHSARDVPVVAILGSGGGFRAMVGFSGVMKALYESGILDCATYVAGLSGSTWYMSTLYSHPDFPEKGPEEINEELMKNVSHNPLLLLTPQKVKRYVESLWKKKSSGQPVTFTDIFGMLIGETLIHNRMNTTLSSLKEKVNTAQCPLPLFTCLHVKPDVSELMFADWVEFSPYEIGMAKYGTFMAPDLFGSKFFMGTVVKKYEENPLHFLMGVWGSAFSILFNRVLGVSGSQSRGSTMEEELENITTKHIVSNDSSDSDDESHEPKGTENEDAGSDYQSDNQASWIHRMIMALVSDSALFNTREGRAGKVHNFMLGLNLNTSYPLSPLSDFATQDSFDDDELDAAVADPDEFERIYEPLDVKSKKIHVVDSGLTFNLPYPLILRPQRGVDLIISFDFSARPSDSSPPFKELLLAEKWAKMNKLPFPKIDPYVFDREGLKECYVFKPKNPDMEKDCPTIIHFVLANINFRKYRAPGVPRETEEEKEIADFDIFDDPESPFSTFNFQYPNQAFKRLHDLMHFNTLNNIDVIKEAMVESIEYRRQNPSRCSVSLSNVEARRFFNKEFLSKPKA
Experimental: The assay was carried in a 96-well format using a fluorescent plate reader with a 355 nm excitation filter and a 460 nm emission filter (Lab Systems Fluoroscan II, Helsinki, Finland). The assay buffer contained 940 μM Triton X-100, 50 mM Hepes pH 7.4, 0.3 mM EDTA, 1 mM CaCl2 and 300 mM KCl. DTPC (1,2-O-tetradecyl-sn-glycero-3-phosphocholine, Avanti) at a final concentration of 120 μM was added the day of the experiment and GLU (7-Hydroxycoumarinyl-γ-linolenate, Biomol Research Lab, Inc.) at a final concentration of 90 μM was added immediately prior to each assay.
Compounds (10 μL) dissolved in DMSO were placed in duplicate wells of a black 96-well plate. Wells corresponding to the positive and negative controls contained DMSO without inhibitors. Just prior to the experiment, 200 μL assay buffer containing 90 μM GLU and 120 μM DTPC was added to all wells in the assay plate. Assay buffer (50 μL) was added to the negative, and 50 μL cPLA2α solution ([…] in assay buffer) was added to all other wells to initiate the reaction. The final concentration of enzyme was 1 μg/ml. The content of each well was mixed gently during the addition of the enzyme, and the plate was rapidly transferred to the fluorescent plate reader. The increase in fluorescence was read every 4 min for 84 min. The slope of the resulting line was determined and the inhibition was calculated using the equation below: Percent Inhibition=[1−(slope with inhibitor−slope negative control)/(slope positive control−slope negative control)]×100 Rat Whole Blood Assay

[2] = system: TXB2; test: Rat Whole Blood Assay (A23187-stimulated TXB2); format: cell-based; settings: A23187 5 μM
Experimental: Fresh blood was collected in heparinized tubes by cardiac puncture of male Sprague-Dawley rats. Aliquots of blood (0.6 mL) were incubated with either 6 μL solvent (DMSO), or 6 μL of test compounds at various concentrations for 15 minutes at 37° C. This was followed by incubation of the blood with 6 μL of calcium ionophore, A23187 (Sigma C-7522) diluted in DMSO for 10 min at 37° C. The final concentration of A23187 was 5 μM. DMSO (6 μL) was added in the unstimulated controls. The reactions were stopped by mixing 60 μL cold EDTA to give a final concentration of 20 mM. The blood was centrifuged at 6,500 rpm for 10 min on a microcentrifuge to obtain plasma. A 70 μL aliquot of plasma was mixed with 400 μL cold methanol for protein precipitation. After incubation at −80° C. for 30 min, the supernatant was obtained by centrifuging at 6,500 rpm for 10 min, and was assayed for TXB2 according to the manufacturer's procedure (Assay Designs, Inc.'s ELISA kit #900-002).

SMILES | IC50 [1] [µM] | IC50 ([2]; Rattus norvegicus) [µM] | IC50 [2] [µM]
O=C(O)c1ccc(OCCc2c(CCNS(=O)(=O)Cc3ccccc3OCc3ccccc3)n(C(c3ccccc3)c3ccccc3)c3ccc(Cl)cc23)cc1 [Example 1, 4-{2-[2-[2-({[2-(benzyloxy)benzyl]sulfonyl}amino)ethyl]-5-chloro-1-(diphenylmethyl)-1H-indol-3-yl]ethoxy}benzoic acid] | 0.26 | 0.14 | 
O=C(O)c1ccc(OCCc2c(CCNS(=O)(=O)Cc3ccccc3O)n(C(c3ccccc3)c3ccccc3)c3ccc(Cl)cc23)cc1 [Example 2, 4-{2-[5-chloro-1-(diphenylmethyl)-2-(2-{[(2-hydroxybenzyl)sulfonyl]amino}ethyl)-1H-indol-3-yl]ethoxy}benzoic acid] | 0.19 | 0.12 | 
O=C(O)c1ccc(OCCc2c(CCNS(=O)(=O)Cc3c(Br)cccc3Br)n(C(c3ccccc3)c3ccccc3)c3ccc(Cl)cc23)cc1 [Example 3, 4-{2-[5-chloro-2-(2-{[(2,6-dibromobenzyl)sulfonyl]amino}ethyl)-1-(diphenylmethyl)-1H-indol-3-yl]ethoxy}benzoic acid] | 0.054 | 0.06 | 
Cc1cccc([N+](=O)[O-])c1CS(=O)(=O)NCCc1c(CCOc2ccc(C(=O)O)cc2)c2cc(Cl)ccc2n1C(c1ccccc1)c1ccccc1 [Example 4, 4-(2-{1-benzhydryl-5-chloro-2-[2-methyl-6-nitro-phenylmethanesulfonylamino)-ethyl-1-H-indol-3-yl}ethoxy)-benzoic acid] | 0.054 |  | 0.02
O=C(O)c1ccc(OCCc2c(CCNS(=O)(=O)Cc3ccccc3C(F)(F)F)n(C(c3ccccc3)c3ccccc3)c3ccc(Cl)cc23)cc1 [Example 5, 4-(2-{5-chloro-1-(diphenylmethyl)-2-[2-({[2-(trifluoromethyl)benzyl]sulfonyl}amino)ethyl]-1H-indol-3-yl}ethoxy)benzoic acid] | 0.026 | 0.02 | 
O=C(O)c1ccc(OCCc2c(CCNS(=O)(=O)Cc3c(F)cccc3C(F)(F)F)n(C(c3ccccc3)c3ccccc3)c3ccc(Cl)cc23)cc1 [Example 6, 4-(2-{5-chloro-1-(diphenylmethyl)-2-[2-({[2-fluoro-6-(trifluoromethyl)benzyl]sulfonyl}amino)ethyl]-1H-indol-3-yl}ethoxy)benzoic acid] | 0.092 | 0.08 | 
O=C(O)c1ccc(CCCc2c(CCNS(=O)(=O)Cc3c(Br)cccc3Br)n(C(c3ccccc3)c3ccccc3)c3ccc(Cl)cc23)cc1 [Example 7, 4-{3-[5-chloro-2-(2-{[(2,6-dibromobenzyl)sulfonyl]amino}ethyl)-1-(diphenylmethyl)-1H-indol-3-yl]propyl}benzoic acid] | 0.018 | 0.03 | 
O=C(O)c1ccc(CCCc2c(CCNS(=O)(=O)Cc3c(Cl)cccc3Cl)n(C(c3ccccc3)c3ccccc3)c3ccc(Cl)cc23)cc1 [Example 8, 4-{3-[5-chloro-2-(2-{[(2,6-dichlorobenzyl)sulfonyl]amino}ethyl)-1-(diphenylmethyl)-1H-indol-3-yl]propyl}benzoic acid] | 0.024 | 0.02 | 
Cc1cccc([N+](=O)[O-])c1CS(=O)(=O)NCCc1c(CCCc2ccc(C(=O)O)cc2)c2cc(Cl)ccc2n1C(c1ccccc1)c1ccccc1 [Example 9] | 0.022 |  | 0.02
CN(CCc1c(CCCc2ccc(C(=O)O)cc2)c2cc(Cl)ccc2n1C(c1ccccc1)c1ccccc1)S(=O)(=O)Cc1ccccc1C(F)(F)F [Example 11, 4-(3-{5-chloro-1-(diphenylmethyl)-2-[2-(methyl{[2-(trifluoromethyl)benzyl]sulfonyl}amino)ethyl]-1H-indol-3-yl}propyl)benzoic acid] | 0.28 | 0.38 | 
O=C(O)c1ccc(CCCc2c(CCNS(=O)(=O)Cc3c(C(F)(F)F)cccc3C(F)(F)F)n(C(c3ccccc3)c3ccccc3)c3ccc(Cl)cc23)cc1 [Example 12, 4-{3-[2-[2-({[2,6-bis(trifluoromethyl)benzyl]sulfonyl}amino)ethyl]-5-chloro-1-(diphenylmethyl)-1H-indol-3-yl]propyl}benzoic acid] | 0.021 | 0.04 | 
COC(=O)c1ccccc1CS(=O)(=O)NCCc1c(CCCc2ccc(C(=O)O)cc2)c2cc(Cl)ccc2n1C(c1ccccc1)c1ccccc1 [Example 13, 4-(3-{5-chloro-1-(diphenylmethyl)-2-[2-({[2-(methoxycarbonyl)benzyl]sulfonyl}amino)ethyl]-1H-indol-3-yl}propyl)benzoic acid] | 0.026 | 0.03 | 
O=Cc1ccccc1CS(=O)(=O)NCCc1c(CCCc2ccc(C(=O)O)cc2)c2cc(Cl)ccc2n1C(c1ccccc1)c1ccccc1 [Example 16, 4-{3-[5-chloro-1-(diphenylmethyl)-2-(2-{[(2-formylbenzyl)sulfonyl]amino}ethyl)-1H-indol-3-yl]propyl}benzoic acid] | 0.023 | 0.05 | 
O=C(O)c1ccc(CCCc2c(CCNS(=O)(=O)Cc3ccccc3CN3CCOCC3)n(C(c3ccccc3)c3ccccc3)c3ccc(Cl)cc23)cc1 [Example 17, 4-(3-{5-chloro-1-(diphenylmethyl)-2-[2-({[2-(morpholin-4-ylmethyl)benzyl]sulfonyl}amino)ethyl]-1H-indol-3-yl}propyl)benzoic acid] | 0.01 | 0.02 | 
CCN(CC)Cc1ccccc1CS(=O)(=O)NCCc1c(CCCc2ccc(C(=O)O)cc2)c2cc(Cl)ccc2n1C(c1ccccc1)c1ccccc1 [Example 18, 4-{3-[5-chloro-2-{2-[({2-[(diethylamino)methyl]benzyl}sulfonyl)amino]ethyl}-1-(diphenylmethyl)-1H-indol-3-yl]propyl}benzoic acid] | 0.025 | 0.04 | 
O=C(O)c1ccc(CCCc2c(CCNS(=O)(=O)Cc3ccccc3CO)n(C(c3ccccc3)c3ccccc3)c3ccc(Cl)cc23)cc1 [Example 19, 4-(3-{5-chloro-1-(diphenylmethyl)-2-[2-({[2-(hydroxymethyl)benzyl]sulfonyl}amino)ethyl]-1H-indol-3-yl}propyl)benzoic acid] | 0.022 | 0.03 | 
CN1CCN(Cc2ccccc2CS(=O)(=O)NCCc2c(CCCc3ccc(C(=O)O)cc3)c3cc(Cl)ccc3n2C(c2ccccc2)c2ccccc2)CC1 [Example 22, 4-[3-(5-chloro-1-(diphenylmethyl)-2-{2-[({2-[(4-methylpiperazin-1-yl)methyl]benzyl}sulfonyl)amino]ethyl}-1H-indol-3-yl)propyl]benzoic acid] | 0.021 | 0.08 | 
CC(c1ccccc1C(F)(F)F)S(=O)(=O)NCCc1c(CCCc2ccc(C(=O)O)cc2)c2cc(Cl)ccc2n1C(c1ccccc1)c1ccccc1 (stereo not shown) [Example 23, 4-[3-(5-chloro-1-(diphenylmethyl)-2-{2-[({1-[2-(trifluoromethyl)phenyl]ethyl}sulfonyl)amino]ethyl}-1H-indol-3-yl)propyl]benzoic acid] | 0.105 | 0.04 | 
O=C(O)c1ccc(CCCc2c(CCNS(=O)(=O)Cc3ccccc3Br)n(C(c3ccccc3)c3ccccc3)c3ccc(Cl)cc23)cc1 [Example 24, 4-{3-[2-(2-{[(2-bromobenzyl)sulfonyl]amino}ethyl)-5-chloro-1-(diphenylmethyl)-1H-indol-3-yl]propyl}benzoic acid] | 0.008 | 0.03 | 
Cc1c(Cl)ccc(F)c1CS(=O)(=O)NCCc1c(CCCc2ccc(C(=O)O)cc2)c2cc(Cl)ccc2n1C(c1ccccc1)c1ccccc1 [Example 26] | 0.022 |  | 0.03
